# “And” between values parts separate entries of the source, which are not always exact repeats. Identical values can stand only once. Like-named read-outs stand apart in the source and are kept apart here.
# How the values were obtained:
# [1] = molecular target: recombinant AplaCSP4 (Agrilus planipennis chemosensory protein 4) (Agrilus planipennis, UniProt A0A1W4XLL0); assay: biochemical; type: binding; conditions: for Competitive binding capability(%) / activity at 2 µM / activity at 4 µM / activity at 6 µM / activity at 8 µM / activity at 10 µM / activity at 12 µM: three replicate columns, 100 at 0 μM
# Procedure: Specifically, the binding affinities of AplaCSP4 for 43 volatile organic compounds were determined using F-380 fluorescence spectrophotometer (Tianjin, China) with a 10 nm slits and a 1 cm light path. These 43 substances are common green leaf volatiles, among which 16 volatiles originate from the ash tree. […]
# Mythimna separata = system: Mythimna separata; set-up: method as in Younas et al., 2022; conditions: ref Younas et al., 2022; cited from earlier work
# Phyllotreta cruciferae = system: Phyllotreta cruciferae; set-up: method as in Cáceres et al., 2016; Sun et al., 2016; conditions: ref Cáceres et al., 2016, Sun et al.; cited from earlier work
# Cnaphalocrocis medinalis = system: Cnaphalocrocis medinalis; set-up: method as in Cáceres et al., 2016; Sun et al., 2016; conditions: ref Cáceres et al., 2016, Sun et al.; cited from earlier work
# [2] = ligand concentration 2 μM, 2 µM
# [3] = ligand concentration 4 μM, 4 µM
# [4] = ligand concentration 6 μM, 6 µM
# [5] = ligand concentration 8 μM, 8 µM
# [6] = ligand concentration 10 μM, 10 µM
# [7] = ligand concentration 12 μM, 12 µM
# Sequence of recombinant AplaCSP4 (Agrilus planipennis chemosensory protein 4) (A0A1W4XLL0 entry or part of it): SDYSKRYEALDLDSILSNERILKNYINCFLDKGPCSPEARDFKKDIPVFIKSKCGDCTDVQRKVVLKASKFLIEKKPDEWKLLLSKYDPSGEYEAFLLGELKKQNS
compound,measurement,setting,value
C=CC(C)(O)CCC=C(C)CCC=C(C)C (mixture of isomers) [Nerolidol],binding to AplaCSP4 (in words),[1]; discussion of fluorescence competitive binding results,particularly high binding affinity
same,Competitive binding capability(%),[1]; [2],51.463% and 50.752%
same,Competitive binding capability(%),[1]; [3],34.5446% and 32.1031%
same,Competitive binding capability(%),[1]; [4],25.4151% and 25.0577%
same,Competitive binding capability(%),[1]; [5],20.9595% and 20.5391%
same,Competitive binding capability(%),[1]; [6],17.6278% and 17.3179%
same,Competitive binding capability(%),[1]; [7],15.4258% and 15.6099%
same,activity at 2 µM,"[1]; pH 7.4, ligand concentration 2 μM, read-out: Competitive binding capability(%)",49.2%
same,activity at 4 µM,"[1]; pH 7.4, ligand concentration 4 μM, read-out: Competitive binding capability(%)",35.3%
same,activity at 6 µM,"[1]; pH 7.4, ligand concentration 6 μM, read-out: Competitive binding capability(%)",25.6%
same,activity at 8 µM,"[1]; pH 7.4, ligand concentration 8 μM, read-out: Competitive binding capability(%)",21.1%
same,activity at 10 µM,"[1]; pH 7.4, ligand concentration 10 μM, read-out: Competitive binding capability(%)",17.9%
same,activity at 12 µM,"[1]; pH 7.4, ligand concentration 12 μM, read-out: Competitive binding capability(%)",16.1%
same,Kd,[1]; read-out: K D ±SE (dissociation constant),1.38 ± 0.03 µM
same,attractive activity,Mythimna separata,attractive activity
CC(=O)/C=C/C1=C(C)CCCC1(C)C [β-Ionone],Kd,[1],4.23 ± 0.07 µM
same,Competitive binding capability(%),[1]; [2],74.4951% and 75.2037%
same,Competitive binding capability(%),[1]; [3],60.2358% and 60.8061%
same,Competitive binding capability(%),[1]; [4],50.2199% and 51.0303%
same,Competitive binding capability(%),[1]; [5],42.8154% and 43.7153%
same,Competitive binding capability(%),[1]; [6],37.3498% and 38.224%
same,Competitive binding capability(%),[1]; [7],33.5198% and 33.2165%
same,activity at 2 µM,"[1]; pH 7.4, read-out: Competitive binding capability(%), ligand concentration 2 μM",75.8%
same,activity at 4 µM,"[1]; pH 7.4, read-out: Competitive binding capability(%), ligand concentration 4 μM",61.2%
same,activity at 6 µM,"[1]; pH 7.4, read-out: Competitive binding capability(%), ligand concentration 6 μM",51.9%
same,activity at 8 µM,"[1]; pH 7.4, read-out: Competitive binding capability(%), ligand concentration 8 μM",45%
same,activity at 10 µM,"[1]; pH 7.4, read-out: Competitive binding capability(%), ligand concentration 10 μM",38.5%
same,activity at 12 µM,"[1]; pH 7.4, read-out: Competitive binding capability(%), ligand concentration 12 μM",34.6%
same,repellent activity,Phyllotreta cruciferae,repellent activity
same,repellent activity,Cnaphalocrocis medinalis,repellent activity

# Source: paper PMC12369603, “Functional characterization of antennae-enriched chemosensory protein 4 in emerald ash borer, Agrilus planipennis” (PeerJ, 2025)
